Source: publication PMC12090182, “Repurposing of the RIPK1-Selective Benzo[1,4]oxazepin-4-one Scaffold for the Development of a Type III LIMK1/2 Inhibitor” (ACS Chemical Biology, 2025)

Columns and labels:
Assay type in all cases: binding
LIMK2 = LIMK2 (Homo sapiens, UniProt P53671); test: Differential scanning fluorimetry assay for LIMK1/2; conditions: LIMK2, 10 μM compound
Description: The assay was performed according to a previously established protocol. […] The compounds to be tested were added to a final concentration of 10 μM. […] Data were analyzed with MxPro software.

PIK3CA(E545A) = PIK3CA(E545A) (Homo sapiens, UniProt P42336, E545A); test: biochemical; conditions: compound concentration 100 nM; Entrez PIK3CA; read-out: Percent Control
EGFR(L861Q) = EGFR(L861Q) (Homo sapiens, UniProt P00533, L861Q); test: biochemical; conditions: 1000 nM, read-out: Percent Control
EGFR(T790M) = EGFR(T790M) (Homo sapiens, UniProt P00533, T790M); test: biochemical; conditions: 1000 nM, read-out: Percent Control
[1] = target: EGFR(L747-S752del, P753S) (Homo sapiens, UniProt P00533, DEL747-752/P753S); test: biochemical; conditions: read-out: Percent Control
[2] = target: ABL1(E255K)-phosphorylated (Homo sapiens, UniProt P00519, E255K); test: biochemical; conditions: read-out: Percent Control
NLK = NLK (Homo sapiens, UniProt Q9UBE8); test: scanMAX KINOMEscan (Eurofins); conditions: 1000 nM, read-out: Percent Control
Excerpt: (§1) Supplement cb5c00097_si_002.xlsx, sheet "Table S6 (Eurofins Selectivity)" | column: Percent Control

STK39 = STK39 (Homo sapiens, UniProt Q9UEW8); test: scanMAX KINOMEscan (Eurofins); conditions: 1000 nM, read-out: Percent Control
Excerpt: as §1

LZK = LZK (Homo sapiens, UniProt O43283); test: scanMAX KINOMEscan (Eurofins); conditions: 1000 nM, read-out: Percent Control
Excerpt: as §1

BMPR2 = BMPR2 (Homo sapiens, UniProt Q13873); test: scanMAX KINOMEscan (Eurofins); conditions: read-out: Percent Control
Excerpt: as §1

EIF2AK1 = EIF2AK1 (Homo sapiens, UniProt Q9BQI3); test: scanMAX KINOMEscan (Eurofins); conditions: 1000 nM, read-out: Percent Control
Excerpt: as §1

AMPK-alpha1 = AMPK-alpha1 (Homo sapiens, UniProt Q13131); test: scanMAX KINOMEscan (Eurofins); conditions: 1000 nM, read-out: Percent Control
Excerpt: as §1

MST3 = MST3 (Homo sapiens, UniProt Q9Y6E0); test: scanMAX KINOMEscan (Eurofins); conditions: 1000 nM, read-out: Percent Control
Excerpt: as §1

VPS34 = VPS34 (Homo sapiens, UniProt Q8NEB9); test: scanMAX KINOMEscan (Eurofins); conditions: compound concentration 100 nM; Entrez PIK3C3; read-out: Percent Control
Excerpt: as §1

ROCK1 = ROCK1 (Homo sapiens, UniProt Q13464); test: scanMAX KINOMEscan (Eurofins); conditions: 1000 nM, read-out: Percent Control
Excerpt: as §1

MUSK = MUSK (Homo sapiens, UniProt O15146); test: scanMAX KINOMEscan (Eurofins); conditions: 1000 nM, read-out: Percent Control
Excerpt: as §1

CAMK1D = CAMK1D (Homo sapiens, UniProt Q8IU85); test: scanMAX KINOMEscan (Eurofins); conditions: read-out: Percent Control
Excerpt: as §1

TRKA = TRKA (Homo sapiens, UniProt P04629); test: scanMAX KINOMEscan (Eurofins); conditions: 1000 nM, read-out: Percent Control
Excerpt: as §1

PAK1 = PAK1 (Homo sapiens, UniProt Q13153); test: scanMAX KINOMEscan (Eurofins); conditions: 1000 nM, read-out: Percent Control
Excerpt: as §1

IKK-alpha = IKK-alpha (Homo sapiens, UniProt O15111); test: scanMAX KINOMEscan (Eurofins); conditions: read-out: Percent Control
Excerpt: as §1

PAK2 = PAK2 (Homo sapiens, UniProt Q13177); test: scanMAX KINOMEscan (Eurofins); conditions: 1000 nM, read-out: Percent Control
Excerpt: as §1

FGFR3 = FGFR3 (Homo sapiens, UniProt P22607); test: scanMAX KINOMEscan (Eurofins); conditions: read-out: Percent Control
Excerpt: as §1

CAMK1B = CAMK1B (Homo sapiens, UniProt Q6P2M8); test: scanMAX KINOMEscan (Eurofins); conditions: 1000 nM, read-out: Percent Control
Excerpt: as §1

DRAK1 = DRAK1 (Homo sapiens, UniProt Q9UEE5); test: scanMAX KINOMEscan (Eurofins); conditions: 1000 nM, read-out: Percent Control
Excerpt: as §1

PRKCH = PRKCH (Homo sapiens, UniProt P24723); test: scanMAX KINOMEscan (Eurofins); conditions: compound concentration 100 nM; Entrez PRKCH; read-out: Percent Control
Excerpt: as §1

ALK = ALK (Homo sapiens, UniProt Q9UM73); test: scanMAX KINOMEscan (Eurofins); conditions: read-out: Percent Control
Excerpt: as §1

DCAMKL2 = DCAMKL2 (Homo sapiens, UniProt Q8N568); test: scanMAX KINOMEscan (Eurofins); conditions: 1000 nM, read-out: Percent Control
Excerpt: as §1

MELK = MELK (Homo sapiens, UniProt Q14680); test: scanMAX KINOMEscan (Eurofins); conditions: compound concentration 100 nM; Entrez MELK; read-out: Percent Control
Excerpt: as §1

[3] = target: TYK2(JH2domain-pseudokinase) (Homo sapiens, UniProt P29597); test: scanMAX KINOMEscan (Eurofins); conditions: compound concentration 100 nM; Entrez TYK2; read-out: Percent Control
Excerpt: as §1

ERK8 = ERK8 (Homo sapiens, UniProt Q8TD08); test: scanMAX KINOMEscan (Eurofins); conditions: read-out: Percent Control
Excerpt: as §1

NEK5 = NEK5 (Homo sapiens, UniProt Q6P3R8); test: scanMAX KINOMEscan (Eurofins); conditions: 1000 nM, read-out: Percent Control
Excerpt: as §1

NEK9 = NEK9 (Homo sapiens, UniProt Q8TD19); test: scanMAX KINOMEscan (Eurofins); conditions: 1000 nM, read-out: Percent Control
Excerpt: as §1

FGR = FGR (Homo sapiens, UniProt P09769); test: scanMAX KINOMEscan (Eurofins); conditions: read-out: Percent Control
Excerpt: as §1

PIP5K2B = PIP5K2B (Homo sapiens, UniProt P78356); test: scanMAX KINOMEscan (Eurofins); conditions: 1000 nM, read-out: Percent Control
Excerpt: as §1

FLT3(D835V) = FLT3(D835V) (Homo sapiens, UniProt P36888, D835V); test: biochemical; conditions: 1000 nM, read-out: Percent Control
[4] = target: ABL1(Y253F)-phosphorylated (Homo sapiens, UniProt P00519, Y253F); test: biochemical; conditions: read-out: Percent Control

Chain of BMPR2 (Q13873 27-1038): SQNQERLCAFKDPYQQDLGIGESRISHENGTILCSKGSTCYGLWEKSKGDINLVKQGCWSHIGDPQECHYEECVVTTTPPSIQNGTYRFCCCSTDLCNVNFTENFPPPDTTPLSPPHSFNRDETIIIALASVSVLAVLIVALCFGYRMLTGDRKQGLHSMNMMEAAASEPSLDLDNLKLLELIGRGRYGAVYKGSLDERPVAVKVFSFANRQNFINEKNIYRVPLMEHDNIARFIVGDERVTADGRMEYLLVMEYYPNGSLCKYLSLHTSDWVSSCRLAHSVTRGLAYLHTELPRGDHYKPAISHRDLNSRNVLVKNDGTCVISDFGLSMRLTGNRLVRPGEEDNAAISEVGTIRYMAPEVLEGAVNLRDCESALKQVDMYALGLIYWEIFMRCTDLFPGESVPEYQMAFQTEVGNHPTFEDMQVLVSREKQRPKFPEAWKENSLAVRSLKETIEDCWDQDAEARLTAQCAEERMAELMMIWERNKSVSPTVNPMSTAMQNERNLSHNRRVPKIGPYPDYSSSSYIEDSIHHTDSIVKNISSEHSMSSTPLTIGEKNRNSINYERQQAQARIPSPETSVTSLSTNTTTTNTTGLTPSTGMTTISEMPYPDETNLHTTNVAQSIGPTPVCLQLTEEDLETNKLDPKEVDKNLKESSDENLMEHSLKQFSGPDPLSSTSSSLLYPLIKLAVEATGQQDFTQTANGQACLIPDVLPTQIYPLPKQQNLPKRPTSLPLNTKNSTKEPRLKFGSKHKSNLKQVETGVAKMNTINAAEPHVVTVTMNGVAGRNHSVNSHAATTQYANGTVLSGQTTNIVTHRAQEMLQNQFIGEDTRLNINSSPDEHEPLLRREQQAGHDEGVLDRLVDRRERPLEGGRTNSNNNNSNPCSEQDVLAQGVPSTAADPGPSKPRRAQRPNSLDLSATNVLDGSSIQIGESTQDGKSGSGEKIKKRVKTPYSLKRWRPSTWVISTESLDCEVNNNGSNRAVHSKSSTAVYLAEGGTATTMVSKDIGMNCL
Chain of FGR (P09769 whole entry): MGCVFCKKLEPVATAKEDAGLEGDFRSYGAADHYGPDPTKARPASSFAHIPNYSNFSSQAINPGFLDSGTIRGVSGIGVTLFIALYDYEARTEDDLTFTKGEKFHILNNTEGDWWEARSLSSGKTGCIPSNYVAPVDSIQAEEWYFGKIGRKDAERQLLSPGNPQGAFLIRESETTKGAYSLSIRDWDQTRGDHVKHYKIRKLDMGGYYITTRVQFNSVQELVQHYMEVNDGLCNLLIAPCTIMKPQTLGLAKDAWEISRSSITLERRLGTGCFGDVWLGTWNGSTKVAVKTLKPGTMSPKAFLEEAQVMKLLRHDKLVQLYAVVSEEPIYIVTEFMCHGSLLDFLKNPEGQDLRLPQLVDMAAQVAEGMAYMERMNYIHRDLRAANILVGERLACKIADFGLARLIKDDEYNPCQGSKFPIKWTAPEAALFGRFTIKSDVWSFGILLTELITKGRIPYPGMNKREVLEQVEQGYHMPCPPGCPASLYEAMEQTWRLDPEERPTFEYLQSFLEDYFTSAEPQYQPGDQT
Chain of IKK-alpha (O15111 whole entry): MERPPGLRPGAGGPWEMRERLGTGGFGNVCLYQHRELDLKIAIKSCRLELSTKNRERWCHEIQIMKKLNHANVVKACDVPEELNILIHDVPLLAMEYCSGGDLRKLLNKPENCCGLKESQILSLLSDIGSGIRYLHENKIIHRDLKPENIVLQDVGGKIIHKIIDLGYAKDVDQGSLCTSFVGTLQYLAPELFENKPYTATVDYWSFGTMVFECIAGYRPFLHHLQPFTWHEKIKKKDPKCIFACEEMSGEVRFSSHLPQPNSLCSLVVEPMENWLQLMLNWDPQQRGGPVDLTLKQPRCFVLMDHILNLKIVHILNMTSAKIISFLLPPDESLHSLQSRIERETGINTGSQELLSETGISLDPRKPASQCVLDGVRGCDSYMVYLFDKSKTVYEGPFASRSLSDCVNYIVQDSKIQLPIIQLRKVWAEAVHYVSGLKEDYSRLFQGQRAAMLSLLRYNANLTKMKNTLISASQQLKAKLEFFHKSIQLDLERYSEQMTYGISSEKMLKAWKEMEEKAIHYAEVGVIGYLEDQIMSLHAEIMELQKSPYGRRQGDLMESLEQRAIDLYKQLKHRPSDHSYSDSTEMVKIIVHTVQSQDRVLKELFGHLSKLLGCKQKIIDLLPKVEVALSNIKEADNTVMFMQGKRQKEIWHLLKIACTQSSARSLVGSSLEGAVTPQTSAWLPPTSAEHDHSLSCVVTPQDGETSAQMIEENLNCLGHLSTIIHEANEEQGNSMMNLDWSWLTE
Chain of FGFR3 (P22607 23-806): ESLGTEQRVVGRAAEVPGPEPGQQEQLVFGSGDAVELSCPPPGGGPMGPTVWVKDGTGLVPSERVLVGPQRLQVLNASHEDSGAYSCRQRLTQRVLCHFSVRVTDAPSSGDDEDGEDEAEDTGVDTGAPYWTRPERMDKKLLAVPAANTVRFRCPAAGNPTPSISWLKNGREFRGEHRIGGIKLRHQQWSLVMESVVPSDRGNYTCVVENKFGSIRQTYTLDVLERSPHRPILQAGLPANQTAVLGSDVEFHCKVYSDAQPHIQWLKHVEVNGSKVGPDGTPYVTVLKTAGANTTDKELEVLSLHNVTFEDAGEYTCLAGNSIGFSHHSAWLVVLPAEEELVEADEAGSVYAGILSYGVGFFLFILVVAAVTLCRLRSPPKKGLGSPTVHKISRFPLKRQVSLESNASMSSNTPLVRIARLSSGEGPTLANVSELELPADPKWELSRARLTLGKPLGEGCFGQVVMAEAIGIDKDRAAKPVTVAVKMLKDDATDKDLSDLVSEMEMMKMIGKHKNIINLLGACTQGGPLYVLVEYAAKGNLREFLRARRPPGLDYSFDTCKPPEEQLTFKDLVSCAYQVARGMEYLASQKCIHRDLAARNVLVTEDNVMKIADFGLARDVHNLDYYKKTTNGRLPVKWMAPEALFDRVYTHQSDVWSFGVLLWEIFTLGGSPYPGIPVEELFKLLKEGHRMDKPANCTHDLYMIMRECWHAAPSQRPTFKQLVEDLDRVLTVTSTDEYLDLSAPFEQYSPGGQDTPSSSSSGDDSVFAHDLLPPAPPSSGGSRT
Chain of ALK (Q9UM73 19-1620): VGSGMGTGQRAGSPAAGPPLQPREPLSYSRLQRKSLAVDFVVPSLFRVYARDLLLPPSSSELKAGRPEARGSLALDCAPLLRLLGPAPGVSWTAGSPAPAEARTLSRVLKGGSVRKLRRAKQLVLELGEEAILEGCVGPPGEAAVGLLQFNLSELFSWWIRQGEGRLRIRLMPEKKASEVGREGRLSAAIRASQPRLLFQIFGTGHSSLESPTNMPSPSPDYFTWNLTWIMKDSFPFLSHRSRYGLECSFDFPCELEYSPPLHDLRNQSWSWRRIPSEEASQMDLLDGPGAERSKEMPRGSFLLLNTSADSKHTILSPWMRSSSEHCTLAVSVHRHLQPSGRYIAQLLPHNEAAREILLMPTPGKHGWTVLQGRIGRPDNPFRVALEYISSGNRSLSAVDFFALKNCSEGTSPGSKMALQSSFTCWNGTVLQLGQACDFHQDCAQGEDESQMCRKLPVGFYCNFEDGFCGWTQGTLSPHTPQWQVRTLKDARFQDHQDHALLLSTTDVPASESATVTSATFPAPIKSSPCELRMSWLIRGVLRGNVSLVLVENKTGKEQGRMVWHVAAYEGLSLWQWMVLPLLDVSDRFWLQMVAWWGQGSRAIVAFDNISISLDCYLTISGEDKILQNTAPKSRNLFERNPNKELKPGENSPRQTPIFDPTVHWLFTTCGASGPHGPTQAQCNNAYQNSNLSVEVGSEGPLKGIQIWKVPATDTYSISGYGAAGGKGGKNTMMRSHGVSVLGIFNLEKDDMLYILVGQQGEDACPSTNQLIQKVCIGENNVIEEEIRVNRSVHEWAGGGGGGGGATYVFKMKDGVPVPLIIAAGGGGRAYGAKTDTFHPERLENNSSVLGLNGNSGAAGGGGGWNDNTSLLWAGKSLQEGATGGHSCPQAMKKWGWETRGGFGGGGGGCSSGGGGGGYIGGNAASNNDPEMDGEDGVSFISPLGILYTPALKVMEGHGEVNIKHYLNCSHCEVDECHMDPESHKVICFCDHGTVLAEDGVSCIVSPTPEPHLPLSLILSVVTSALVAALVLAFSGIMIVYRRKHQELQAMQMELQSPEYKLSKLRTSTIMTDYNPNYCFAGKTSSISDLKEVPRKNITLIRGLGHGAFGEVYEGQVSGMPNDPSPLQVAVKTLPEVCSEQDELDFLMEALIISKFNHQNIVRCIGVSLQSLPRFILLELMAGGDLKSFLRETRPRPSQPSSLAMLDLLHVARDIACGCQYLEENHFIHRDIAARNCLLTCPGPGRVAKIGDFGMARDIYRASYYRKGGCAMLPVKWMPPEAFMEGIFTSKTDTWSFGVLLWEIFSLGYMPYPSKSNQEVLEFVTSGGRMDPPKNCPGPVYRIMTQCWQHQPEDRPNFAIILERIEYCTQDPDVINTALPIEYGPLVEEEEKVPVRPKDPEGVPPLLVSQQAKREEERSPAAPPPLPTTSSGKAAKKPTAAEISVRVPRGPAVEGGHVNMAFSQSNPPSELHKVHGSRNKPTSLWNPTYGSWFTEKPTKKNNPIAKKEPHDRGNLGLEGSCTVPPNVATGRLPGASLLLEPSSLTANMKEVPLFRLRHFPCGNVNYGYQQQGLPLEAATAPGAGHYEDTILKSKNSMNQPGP
Chain of CAMK1D (Q8IU85 whole entry): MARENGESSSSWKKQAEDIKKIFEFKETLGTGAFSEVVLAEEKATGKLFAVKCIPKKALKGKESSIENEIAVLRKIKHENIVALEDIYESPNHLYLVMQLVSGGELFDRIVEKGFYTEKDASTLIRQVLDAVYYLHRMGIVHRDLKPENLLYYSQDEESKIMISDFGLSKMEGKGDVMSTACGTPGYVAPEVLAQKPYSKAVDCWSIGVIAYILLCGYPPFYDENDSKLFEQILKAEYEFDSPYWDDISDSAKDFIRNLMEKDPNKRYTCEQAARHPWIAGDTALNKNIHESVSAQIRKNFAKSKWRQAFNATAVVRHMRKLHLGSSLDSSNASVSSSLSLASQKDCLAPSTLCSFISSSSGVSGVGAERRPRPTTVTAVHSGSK

With `CN1C(=O)[C@@H](N2CCc3c(C(N)=O)nn(Cc4ccccc4)c3C2=O)COc2ccccc21` [Compound 11] the “ΔTM (stabilization in the DSF assay)” value (LIMK2) was “inactive”.
Work on `CN1C(=O)[C@@H](N2CCc3c(nn(Cc4ccccc4)c3C(N)=O)C2=O)COc2cc(Cl)ccc21` [Compound 10, (S)-2-benzyl-6-(8-chloro-5-methyl-4-oxo-2,3,4,5-tetrahydrobenzo[b][1,4]oxazepin-3-yl)-7-oxo-4,5,6,7-tetrahydro-2H-pyrazolo[3,4-c]pyridine-3-carboxamide] yielded a remaining activity at 0.1 µM (PIK3CA(E545A)) of 92%, a remaining activity at 1 µM (EGFR(L861Q)) of 88% and a remaining activity at 1 µM (EGFR(T790M)) of 100%. It also gave a remaining activity at 1 µM [1] of 100%, a remaining activity at 1 µM [2] of 94% and a remaining binding at 1 µM (NLK) of 98%. It also gave a remaining binding at 1 µM (STK39) of 84%, a remaining binding at 1 µM (LZK) of 67% and a remaining binding at 1 µM (BMPR2; 1000 nM) of 100%. It also gave a remaining binding at 0.1 µM (BMPR2; compound concentration 100 nM, Entrez BMPR2) of 90%, a remaining binding at 1 µM (EIF2AK1) of 94% and a remaining binding at 1 µM (AMPK-alpha1) of 87%. The remaining binding at 1 µM (MST3) was 96%, the remaining binding at 0.1 µM (VPS34) was 100% and the remaining binding at 1 µM (ROCK1) was 69%. The remaining binding at 1 µM (MUSK) was 92%, the remaining binding at 1 µM (CAMK1D; 1000 nM) was 100% and the remaining binding at 0.1 µM (CAMK1D; compound concentration 100 nM, Entrez CAMK1D) was 92%. It also gave a remaining binding at 1 µM (TRKA) of 95%, a remaining binding at 1 µM (PAK1) of 76% and a remaining binding at 1 µM (IKK-alpha; 1000 nM) of 100%. It also gave a remaining binding at 0.1 µM (IKK-alpha; compound concentration 100 nM, Entrez CHUK) of 93%, a remaining binding at 1 µM (PAK2) of 67% and a remaining binding at 1 µM (FGFR3; 1000 nM) of 100%. It also gave a remaining binding at 0.1 µM (FGFR3; compound concentration 100 nM, Entrez FGFR3) of 100%, a remaining binding at 1 µM (CAMK1B) of 91% and a remaining binding at 1 µM (DRAK1) of 91%. For the same molecule, the remaining binding at 0.1 µM (PRKCH) was 92%, the remaining binding at 1 µM (ALK; 1000 nM) was 100% and the remaining binding at 0.1 µM (ALK; compound concentration 100 nM, Entrez ALK) was 84%. The remaining binding at 1 µM (DCAMKL2) was 83%, the remaining binding at 0.1 µM (MELK) was 93% and the remaining binding at 0.1 µM [3] was 100%. It also gave a remaining binding at 1 µM (ERK8; 1000 nM) of 100%, a remaining binding at 0.1 µM (ERK8; compound concentration 100 nM, Entrez MAPK15) of 82% and a remaining binding at 1 µM (NEK5) of 96%. It also gave a remaining binding at 1 µM (NEK9) of 92%, a remaining binding at 1 µM (FGR; 1000 nM) of 100% and a remaining binding at 0.1 µM (FGR; compound concentration 100 nM, Entrez FGR) of 77%. For the same molecule, the remaining binding at 1 µM (PIP5K2B) was 73%, the remaining activity at 1 µM (FLT3(D835V)) was 56% and the remaining activity at 1 µM [4] was 85%.
